Reference: EP4799701A2, “PYRIMID-2-YL-PYRAZOLE COMPOUNDS AS IRAK INHIBITORS” (Rigel Pharmaceuticals, Inc., priority 2022, dated 2023)
Several values for one entry are separate records, joined by “and”; a condition that tells them apart may be missing. Equal values may be shown once. Where a name gives a salt, the structure may show the parent alone.

Key:
[1] = test system: TLR4-induced IL-23; assay: LPS induced IL23p19 in THP-1 cells (IFNγ primed), IL-23p19 sandwich ELISA; assay type: cell-based, human; conditions: THP-1 cells primed with IFNγ, 1 µg/mL LPS, 18 hours; read-out: IL23-p19 ELISA, THP1-IFNy, LPS, 10pt EC50
Source text: LPS induced IL23p19 in THP-1 cells (with IFNy primed) Assay
THP-1 Cells (ATCC, Cat# TIB-202), Dimethyl Sulfoxide (DMSO) (Sigma-Aldrich, Cat# D2650), RPMI 1640 (Cellgro, Cat# 10-040-CM), Fetal Bovine Serum (Sigma, Cat# F4135), Albumin From Bovine Serum (BSA) (Sigma-Aldrich, Cat#A7906), LPS (Serotype K-235, Sigma, Product Number L 2143), IFNγ (Peprotech, Cat# 300-02), Capture antibody: Human IL-23p19 ELISA (e-Bioscience, Cat. # 14-7238-85), Detection antibody: Primary Mouse Biotinylated anti-human IL-12(p40/p70) (e-Bioscience, Cat. # 13-7129-85), Secondary HRP-conjugated Streptavidin (R&D Systems, Cat#DY998), 1x PBST Washing Buffer (PBS-Tween tablet) (VWR International, Cat#80058-558), ELISA Blocking Buffer (PBS with 1% BSA), ELISA Dilution Buffer (PBS with 1% BSA), 384 Well Flat-Bottom, MaxiSorp Black Immuno Plates (Thermo Scientific, Cat# 12-565-346), 384 Well Flat-Bottom, White Tissue Culture Plates (Thermo Scientific, Cat# 12-565-343), Super Signal ELISA Pico Chemiluminescent Substrate (Thermo Scientific, Cat#37070), Cell Titer Glo reagent (Promega, Cat#G7573), Positive control, IKK2VI inhibitor (Calbiochem, Cat#401483), AquaMax 4000 plate washer (Molecular Devices), Luminometer, Wallac Victor2 1420 Multilabel Counter.
On day 1, 50K/well THP-1 cells were seeded and primed with IFNγ (50ng/mL) in 384-well plates for about 18 hours in RPMI media with 10%FBS. On day 2, the compound was serially diluted in DMSO from 5 mM in 3-fold dilutions, and then diluted 1:125 in RPMI media with 10%FBS. […] IL-23p19 protein in 70 µL/well of supernatant was measured by sandwich ELISA, and 25 µl/well Cell Titer Glo reagent was added to the remaining cells to measure compound toxicity.
Maxisorp immuno ELISA plates were pre-coated with 25 µL/well of anti-IL-23p19 capture antibody (2.5ug/mL) in PBS overnight at room temperature. […] The plates were read with a luminometer, and the chemiluminescence values were entered into Athena (Rigel) for curve fitting, EC50 calculation, and database storage. […]

[2] = Rat brain homogenate binding, equilibrium dialysis (RED); assay type: in vitro ADME; conditions: two runs; brain homogenate 1 brain /3 buffer, drug 5 µM; 5 µM
Description: Brain and plasma drug binding were performed by equilibrium dialysis using the Rapid Equilibrium Dialysis (RED) device. Briefly, 300 µL of plasma or brain homogenate (1 brain /3 buffer) containing drug (5 µM) was equilibrated (4-18 h) against 500 µL of buffered saline. After incubation, the concentration of drug in plasma/brain homogenate and buffer was determined by LC-MS/MS.
Two runs of rat brain homogenate binding with I-1 compared to Comparison-1. I-1 is approximately 10-fold more free in rat brain than Comparison-1.

EC50 [1] [nM] | rat brain homogenate binding (free drug) [2] | Structure (SMILES)
54.4 |  | CCO[C@H]1CC[C@H](n2cc(NC(=O)c3csc(-c4cnn(COP(=O)(O)O)c4)n3)c(-c3ncccn3)n2)CC1 [Compound I-3, sodium (4-(4-((1-((1r,4r)-4-ethoxycyclohexyl)-3-(pyrimidin-2-yl)-1H-pyrazol-4-yl)carbamoyl)thiazol-2-yl)-1H-pyrazol-1-yl)methyl phosphate]
 | 0.102% and 0.114% | CCO[C@H]1CC[C@H](n2cc(NC(=O)c3csc(-c4cn[nH]c4)n3)c(-c3nc(F)ccc3F)n2)CC1 [Comparison-1, reference compound]
2.5 |  | CCO[C@H]1CC[C@H](n2cc(NC(=O)c3csc(-c4cn[nH]c4)n3)c(-c3ncccn3)n2)CC1 [Compound I-4, N-(1-((1r,4r)-4-ethoxycyclohexyl)-3-(pyrimidin-2-yl)-1H-pyrazol-4-yl)-2-(1H-pyrazol-4-yl)thiazole-4-carboxamide tartaric acid salt]
